Earlier results, collected in patent US8299214B2 (priority 2006, dated 2012).

Molecular target: hemagglutinin (Influenza A virus, UniProt P03437)
Settings: read-out: binding constant between hemagglutinin and free sialyl lactose (K0); evaluation by NMR, reported; cited from earlier work

Question: With `CC(=O)N[C@H]1[C@H]([C@H](O)[C@H](O)CO)O[C@@](O[C@H]2[C@@H](O)[C@@H](CO)O[C@@H](O[C@H]3[C@H](O)[C@@H](O)C(O)O[C@@H]3CO)[C@@H]2O)(C(=O)O)C[C@@H]1O` (stereo partly drawn) [α (2, 3)-sialyllactose] as the compound, how does the Kd read?
Answer: 3.2 mM
